This note sets out measurements from patent publication US7893056B2, “Peptide deformylase inhibitors” (GlaxoSmithKline LLC, priority 2007, dated 2011).

In brackets after ≈: the same amount, converted by molar mass. Several values for one entry are separate records, joined by “and”; a condition that tells them apart may be missing. Identical values can stand only once. A value given as a limit tells only on which side of the number the result lay.

In general, MIC refers to the lowest concentration found to suppress growth.

Common to all, as to test: Antimicrobial activity assay, broth microdilution MIC
Format in all cases: cell-based
For orientation: Dilution methods test growth across graded concentrations, often in twofold steps.

For assay [1], the system named is Moraxella catarrhalis 1502. As to conditions: others: individual runs; for MIC: Moraxella catarrhalis, 1502, Examples 24 and 63: median of all results obtained. The method, then:
(§1) Whole-cell antimicrobial activity was determined by broth microdilution using the Clinical and Laboratory Standards Institute (CLSI, formerly NCCLS) recommended methodology (NCCLS Document M7-A6, “Methods for Dilution Susceptibility Tests for Bacteria that Grow Aerobically—Approved Standard Sixth Edition”, 2003). Compounds were tested in serial two-fold dilutions ranging from 64 to 0.06 μg/mL. A panel of 12 strains was evaluated in the assay. This panel consisted of the following laboratory strains: Staphylococcus aureus Oxford, Staphylococcus aureus WCUH29, Enterococcus faecalis 1, Enterococcus faecalis 7, Haemophilus influenzae Q1, Haemophilus influenzae NEMC1, Moraxella catarrhalis 1502, Streptococcus pneumoniae 1629, Streptococcus pneumoniae N1387, Streptococcus pneumoniae Ery2, Escherichia coli 7623 (AcrABEFD+) and Escherichia coli 120 (AcrAB−). The minimum inhibitory concentration (MIC) was determined as the lowest concentration of compound that inhibited visible growth. A mirror reader was used to assist in determining the MIC endpoint.

For assay [2], the system named is Staphylococcus aureus WCUH29. As to conditions: others: individual runs; for MIC: Staphylococcus aureus, WCUH29, Examples 24 and 63: median of all results obtained, read-out: MIC, S. aureus WCUH29. The method, then: as §1
Assay [3] relates to Streptococcus pneumoniae Ery2. The settings on record: Examples 24 and 63: median of all results obtained, others: individual runs, read-out: MIC, S. pneumoniae ERY2. The method, then: as §1
The test system of another assay is Enterococcus faecalis 1. As to conditions: others: individual runs; for MIC: Enterococcus faecalis, 1, Examples 24 and 63: median of all results obtained, read-out: MIC, E. faecalis I; for MIC, E. faecalis I: Examples 24 and 63: median of all results obtained. The method, then:
as §1

Another assay has as its system Enterococcus faecalis 7. As to conditions: others: individual runs; for MIC: Enterococcus faecalis, 7, Examples 24 and 63: median of all results obtained, read-out: MIC, E. faecalis 7; for MIC, E. faecalis 7: Examples 24 and 63: median of all results obtained. The method, then: as §1
Assay [4] has as its system Staphylococcus aureus Oxford. The settings on record: Examples 24 and 63: median of all results obtained, others: individual runs; for MIC: Staphylococcus aureus, read-out: MIC, S. aureus Oxford. The protocol:
as §1

Assay [5] deals with Streptococcus pneumoniae 1629. The settings on record: Examples 24 and 63: median of all results obtained, others: individual runs, read-out: MIC, S. pneumoniae 1629. The protocol: as §1
The subject of assay [6] is Streptococcus pneumoniae N1387. As to conditions: Examples 24 and 63: median of all results obtained, others: individual runs, read-out: MIC, S. pneumoniae N1387. The protocol: as §1
Assay [7] has as its system Escherichia coli 7623 (AcrABEFD+). As to conditions: Examples 24 and 63: median of all results obtained; others: individual runs. The method, then:
as §1

Setting [8] is: Examples 24 and 63: median of all results obtained.

Take `Cc1nc(NNC(=O)[C@H](CC2CCCC2)CN(O)C=O)c(F)c(N2CCN3CCOC[C@@H]3C2)n1` [Example 24, [(2R)-2-(Cyclopentylmethyl)-3-(2-{5-fluoro-6-[(9aS)-hexahydropyrazino[2,1-c][1,4]oxazin-8(1H)-yl]-2-methyl-4-pyrimidinyl}hydrazino)-3-oxopropyl]hydroxyformamide]: the MIC in [1], in assay [2] and in [3] was 0.375 µg/mL (≈ 0.782 µM) in each case.
Regarding `C[C@@H]1CN(C)CCN1c1nc(Cl)nc(NNC(=O)[C@H](CC2CCCC2)CN(O)C=O)c1F` [Example 63, [(2R)-3-(2-{2-Chloro-6-[(2R)-2,4-dimethyl-1-piperazinyl]-5-fluoro-4-pyrimidinyl}hydrazino)-2-(cyclopentylmethyl)-3-oxopropyl]hydroxyformamide], the MIC in the assay with Enterococcus faecalis 1 was 16 µg/mL (≈ 33.9 µM); with Enterococcus faecalis 7, 64 µg/mL (≈ 136 µM); in [1], 0.125 µg/mL (≈ 0.265 µM); in assay [4] it was 1 µg/mL (≈ 2.12 µM); in assay [2] it was 0.5 µg/mL (≈ 1.06 µM); in assay [5] it was 0.5 µg/mL (≈ 1.06 µM). For the same compound, the MIC in assay [3] and in assay [6] was 0.25 µg/mL (≈ 0.53 µM) throughout.
`Cc1nc(NNC(=O)[C@H](CC2CCCC2)CN(O)C=O)c(F)c(N2CCN(C)C[C@H]2C)n1` [Example 109, [(2R)-2-(Cyclopentylmethyl)-3-(2-{6-[(2R)-2,4-dimethyl-1-piperazinyl]-5-fluoro-2-methyl-4-pyrimidinyl}hydrazino)-3-oxopropyl]hydroxyformamide]: the MIC is 64 µg/mL (≈ 142 µM) with Enterococcus faecalis 1; greater than 64 µg/mL with Enterococcus faecalis 7; 0.25 µg/mL (≈ 0.554 µM) in [1]; 2 µg/mL (≈ 4.43 µM) in assay [4]; 0.5 µg/mL (≈ 1.11 µM) in assay [2]; 0.5 µg/mL (≈ 1.11 µM) in assay [5]. The MIC in assay [3] and in [6] was 0.25 µg/mL (≈ 0.554 µM) in each case. Also, the “MIC, E. faecalis I” value against Enterococcus faecalis 1 was 64, >64 μg/ml.
Consider `CN1CCN(c2nc(Cl)nc(NNC(=O)[C@H](CC3CCCC3)CN(O)C=O)c2F)CC12CC2` [Example 172, [(2R)-3-{2-[2-Chloro-5-fluoro-6-(4-methyl-4,7-diazaspiro[2.5]oct-7-yl)-4-pyrimidinyl]hydrazino}-2-(cyclopentylmethyl)-3-oxopropyl]hydroxyformamide], for which the MIC with Enterococcus faecalis 1 is 16 µg/mL (≈ 33.1 µM); in assay [4], 1 µg/mL (≈ 2.07 µM); in assay [2], 0.5 µg/mL (≈ 1.03 µM); in assay [5], 0.5 µg/mL (≈ 1.03 µM); in [3], 0.125 to 0.25 µg/mL (≈ 0.258 to 0.517 µM); in assay [6] it was 0.125 µg/mL (≈ 0.258 µM). In the assay on Enterococcus faecalis 7, the “MIC, E. faecalis 7” value was 8 µg/mL and 64 µg/mL. Also, the “MIC, E. coli 7623 AcrABEFD+” value in [7] is 4 µg/mL and 16 µg/mL. Moreover, the “MIC, M. catarrhalis 1502” value in [1] (setting [8]) was ≤ 0.06 µg/mL and 0.125 µg/mL. In addition, the “MIC, S. aureus Oxford” value in assay [4] worked out at 2 µg/mL (≈ 4.13 µM).
With `Cc1nc(NNC(=O)[C@H](CC2CCCC2)CN(O)C=O)c(F)c(N2CCN(C)C3(CC3)C2)n1` [Example 275, ((2R)-2-(Cyclopentylmethyl)-3-{2-[5-fluoro-2-methyl-6-(4-methyl-4,7-diazaspiro[2.5]oct-7-yl)-4-pyrimidinyl]hydrazino}-3-oxopropyl)hydroxyformamide], the MIC in the assay on Enterococcus faecalis 1 came to 32 µg/mL (≈ 69 µM); in [1], 0.25 µg/mL (≈ 0.539 µM); in [4], 2 µg/mL (≈ 4.31 µM); in assay [2], 0.5 µg/mL (≈ 1.08 µM); in assay [5], 1 µg/mL (≈ 2.16 µM); in assay [3], 0.5 µg/mL (≈ 1.08 µM). Further, the MIC in [6] is 0.5 µg/mL (≈ 1.08 µM). Besides, the “MIC, E. faecalis I” value against Enterococcus faecalis 1 is 64 µg/mL (≈ 138 µM). Moreover, the “MIC, E. faecalis 7” value in the assay on Enterococcus faecalis 7 was 16 µg/mL and 64 µg/mL. For the same compound, in [7], the “MIC, E. coli 7623 AcrABEFD+” value was 4 µg/mL and 16 µg/mL. Further, the “MIC, S. aureus Oxford” value in assay [4] worked out at 4 µg/mL (≈ 8.63 µM). Also, the “MIC, S. aureus WCUH29” value in [2] (setting [8]) was found to be 1 µg/mL (≈ 2.16 µM).
